Experimental data: article PMC11617094 (Molecular Biology of the Cell, 2024)
Blank lines part the entries; values can stand above or below the molecule they belong to.

Experiments:
Alp7A [1] = target: T1, Alp7A (Bacillus subtilis, UniProt C7F6X5); experiment: EnzChek phosphate release (ATPase on polymerization); type: biochemical; settings: 10 mM ATP/Mg, 25 mM Tris pH 7.5, 100 mM KCl, 1 mM MgCl2, 1 mM DTT; no Alp7R
T1 construct: untagged native Alp7A encoded by plasmid pLS20, codon-optimised gene in pET28a (NcoI/HindIII), expressed in E. coli C43, purified by a polymerization cycle and gel filtration; forms two-stranded filaments
T1 sequence (C7F6X5 1-391): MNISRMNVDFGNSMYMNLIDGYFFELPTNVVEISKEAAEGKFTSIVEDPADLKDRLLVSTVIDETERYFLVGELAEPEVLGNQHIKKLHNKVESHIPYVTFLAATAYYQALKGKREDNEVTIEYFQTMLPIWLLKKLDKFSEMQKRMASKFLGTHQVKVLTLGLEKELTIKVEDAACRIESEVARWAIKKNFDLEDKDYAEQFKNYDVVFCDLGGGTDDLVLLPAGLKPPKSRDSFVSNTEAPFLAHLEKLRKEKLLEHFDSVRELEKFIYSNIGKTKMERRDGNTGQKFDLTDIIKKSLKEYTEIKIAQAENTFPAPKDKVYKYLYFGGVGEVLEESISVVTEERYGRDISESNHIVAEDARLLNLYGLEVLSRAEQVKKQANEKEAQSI

Alp7A [2] = target: T2, Alp7A (Bacillus subtilis, UniProt C7F6X5, E180A); experiment: right-angle light scattering of ATP-induced polymerization; phosphate release; settings: Mg-ATP 3 mM (polymerization) or 10 mM (phosphate release), 25 mM Tris pH 7.5, 100 mM KCl, 1 mM MgCl2, 1 mM DTT; nucleotide-binding pocket mutant
T2 construct: untagged native Alp7A encoded by plasmid pLS20, codon-optimised gene in pET28a (NcoI/HindIII), expressed in E. coli C43, purified by a polymerization cycle and gel filtration; forms two-stranded filaments

[3] = target: Alp7A (wild type, native, unlabelled) (Bacillus subtilis (plasmid pLS20)) (UniProt C7F6X5)
[4] = target: the molecule itself; experiment: negative-stain electron microscopy; polymers formed with 3 mM ATP/Mg++, adsorbed to carbon-coated grids, 0.75% uranyl formate; buffer as for light scattering

Molecule: Nc1ncnc2c1ncn2[C@@H]1O[C@H](COP(=O)(O)OP(=O)(O)OP(=O)(O)O)[C@@H](O)[C@H]1O [ATP]
EnzChek phosphate release (ATPase on polymerization) (Alp7A [1]): phosphate dissociates rapidly from wild-type Alp7A polymers
right-angle light scattering of ATP-induced polymerization; phosphate release (Alp7A [2]): addition of Mg-ATP to purified Alp7A-E180A induces formation of stable polymers

concentration threshold of the specific ATPase activity (steady-state phosphate release) of Alp7A, taken as the critical concentration for elongation (ccE) [3]: 0.6 µM
Molecule: Alp7A (wild type, native, unlabelled) (from UniProt C7F6X5 1-391) (natural protein)

B1: Alp7A-E180A (hydrolysis-dead mutant, unlabelled) (natural protein, Bacillus subtilis (plasmid pLS20), UniProt C7F6X5 1-391, looked up)
chain: MNISRMNVDFGNSMYMNLIDGYFFELPTNVVEISKEAAEGKFTSIVEDPADLKDRLLVSTVIDETERYFLVGELAEPEVLGNQHIKKLHNKVESHIPYVTFLAATAYYQALKGKREDNEVTIEYFQTMLPIWLLKKLDKFSEMQKRMASKFLGTHQVKVLTLGLEKELTIKVEDAACRIASEVARWAIKKNFDLEDKDYAEQFKNYDVVFCDLGGGTDDLVLLPAGLKPPKSRDSFVSNTEAPFLAHLEKLRKEKLLEHFDSVRELEKFIYSNIGKTKMERRDGNTGQKFDLTDIIKKSLKEYTEIKIAQAENTFPAPKDKVYKYLYFGGVGEVLEESISVVTEERYGRDISESNHIVAEDARLLNLYGLEVLSRAEQVKKQANEKEAQSI
binding result [4]: binds
